The NIST ThermoML archive (doi:10.1021/acs.jced.9b00147)
Values joined by “and” are separate entries in the source; they are usually repeats but may differ in a detail not shown here. Equal values may be shown once. ± gives the expanded uncertainty stated by the source.

Key:
[1] = 101.3 kPa, Liquid; for speed of sound: Single path-length method; for mass density: Vibrating tube method
[2] = xn = mol fraction of the nth substance listed; conditions: 101.3 kPa, Liquid, x2 = 0; for speed of sound: Single path-length method; for mass density: Vibrating tube method

SMILES | speed of sound ([1]; 293.15 K) | mass density ([1]; 293.15 K) | speed of sound ([1]; 303.15 K) | mass density ([1]; 303.15 K) | speed of sound ([1]; 313.15 K) | mass density ([1]; 313.15 K) | speed of sound ([1]; 323.15 K) | mass density ([1]; 323.15 K) | speed of sound ([2]; 293.15 K) | mass density ([2]; 293.15 K) | speed of sound ([2]; 303.15 K) | mass density ([2]; 303.15 K) | speed of sound ([2]; 313.15 K) | mass density ([2]; 313.15 K) | speed of sound ([2]; 323.15 K) | mass density ([2]; 323.15 K)
CC(=O)[O-].OCC[NH2+]CCO [2,2'-azanediylbis(ethanol) acetate] | 1884.7 ± 20 m/s | 1180 ± 6 kg/m3 | 1828.2 ± 20 m/s | 1173 ± 6 kg/m3 | 1788.6 ± 20 m/s | 1167 ± 6 kg/m3 | 1756 ± 20 m/s | 1160 ± 6 kg/m3 |  |  |  |  |  |  |  | 
CC(=O)[O-].[NH3+]CCO [2-hydroxyethylammonium acetate] | 1812.9 ± 20 m/s | 1150 ± 6 kg/m3 | 1781.2 ± 20 m/s | 1144 ± 6 kg/m3 | 1754.7 ± 20 m/s | 1139 ± 6 kg/m3 | 1730.9 ± 20 m/s | 1133 ± 6 kg/m3 and 1132 ± 6 kg/m3 |  |  |  |  |  |  |  | 
CCCO [propan-1-ol] | 1223.4 ± 20 m/s | 803.6 ± 6 kg/m3 | 1189.4 ± 20 m/s | 795.7 ± 6 kg/m3 | 1155.5 ± 20 m/s | 787.5 ± 6 kg/m3 | 1122 ± 20 m/s | 779.2 ± 6 kg/m3 |  |  |  |  |  |  |  | 
CC(C)O [propan-2-ol] | 1174.3 ± 20 m/s | 791.5 ± 6 kg/m3 | 1122.4 ± 20 m/s | 777 ± 6 kg/m3 | 1087.4 ± 20 m/s | 768.2 ± 6 kg/m3 | 1051.6 ± 20 m/s | 759 ± 6 kg/m3 |  |  |  |  |  |  |  | 
CC(C)O [propan-2-ol] + CC(=O)[O-].OCC[NH2+]CCO |  |  |  |  |  |  |  |  | 1174.3 ± 20 m/s | 791.5 ± 6 kg/m3 | 1122.4 ± 20 m/s | 777 ± 6 kg/m3 | 1087.4 ± 20 m/s | 768.2 ± 6 kg/m3 | 1051.6 ± 20 m/s | 759 ± 6 kg/m3
CC(C)O [propan-2-ol] + CC(=O)[O-].[NH3+]CCO |  |  |  |  |  |  |  |  | 1174.3 ± 20 m/s | 791.5 ± 6 kg/m3 | 1122.4 ± 20 m/s | 777 ± 6 kg/m3 | 1087.4 ± 20 m/s | 768.2 ± 6 kg/m3 | 1051.6 ± 20 m/s | 759 ± 6 kg/m3

Next, values leading:

speed of sound ([1]; 293.15 K) | mass density ([1]; 293.15 K) | speed of sound ([1]; 303.15 K) | mass density ([1]; 303.15 K) | speed of sound ([1]; 313.15 K) | mass density ([1]; 313.15 K) | speed of sound ([1]; 323.15 K) | mass density ([1]; 323.15 K) | speed of sound ([2]; 293.15 K) | mass density ([2]; 293.15 K) | speed of sound ([2]; 303.15 K) | mass density ([2]; 303.15 K) | speed of sound ([2]; 313.15 K) | mass density ([2]; 313.15 K) | speed of sound ([2]; 323.15 K) | mass density ([2]; 323.15 K) | SMILES
 |  |  |  |  |  |  |  | 1223.4 ± 20 m/s | 803.6 ± 6 kg/m3 | 1189.4 ± 20 m/s | 795.7 ± 6 kg/m3 | 1155.5 ± 20 m/s | 787.5 ± 6 kg/m3 | 1122 ± 20 m/s | 779.2 ± 6 kg/m3 | CCCO [propan-1-ol] + CC(=O)[O-].OCC[NH2+]CCO
 |  |  |  |  |  |  |  | 1223.4 ± 20 m/s | 803.6 ± 6 kg/m3 | 1189.4 ± 20 m/s | 795.7 ± 6 kg/m3 | 1155.5 ± 20 m/s | 787.5 ± 6 kg/m3 | 1122 ± 20 m/s | 779.2 ± 6 kg/m3 | CCCO [propan-1-ol] + CC(=O)[O-].[NH3+]CCO
